Data published in patent US11780893B2, “Kv1.3 blockers” (Zealand Pharma A/S, priority 2019, dated 2023).
Like-named read-outs stand apart in the source and are kept apart here. Bridge positions count the residues as written; N and C are the ends. Square brackets hold non-standard residues; d marks the D form. Peptide text beside a SMILES is read from it. Aad = N[C@@H](CCCC(=O)O)C(=O)O; Nle = CCCC[C@H](N)C(=O)O

Experiments:
[1] = target: T1, human Kv1.3 voltage-gated K+ channel (Homo sapiens, UniProt P22001); assay: cell-based; conditions: inhibition of thallium flux, CHO-DUKX cells with human Kv1.3; read-out: IC50
T1 construct: host or cells: CHO-DUKX
T1 sequence (P22001 whole entry): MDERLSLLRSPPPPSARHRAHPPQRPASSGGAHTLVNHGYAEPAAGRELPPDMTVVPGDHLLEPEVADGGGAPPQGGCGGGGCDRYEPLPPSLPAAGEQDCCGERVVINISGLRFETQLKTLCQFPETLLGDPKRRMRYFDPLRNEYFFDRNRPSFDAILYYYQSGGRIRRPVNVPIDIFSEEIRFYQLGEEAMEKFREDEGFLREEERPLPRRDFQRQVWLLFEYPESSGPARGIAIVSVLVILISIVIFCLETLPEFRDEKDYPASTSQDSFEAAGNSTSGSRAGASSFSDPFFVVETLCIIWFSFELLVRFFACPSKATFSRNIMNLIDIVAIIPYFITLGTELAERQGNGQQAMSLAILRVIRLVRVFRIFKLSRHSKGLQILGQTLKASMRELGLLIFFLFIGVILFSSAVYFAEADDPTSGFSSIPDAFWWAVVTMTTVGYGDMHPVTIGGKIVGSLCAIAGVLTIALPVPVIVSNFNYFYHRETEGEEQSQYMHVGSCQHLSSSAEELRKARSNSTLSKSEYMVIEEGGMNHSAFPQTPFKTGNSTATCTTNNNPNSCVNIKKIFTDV

Rat whole blood = Rat whole blood (Rattus norvegicus, UniProt P15384)
Chain of Rat whole blood (P15384 whole entry): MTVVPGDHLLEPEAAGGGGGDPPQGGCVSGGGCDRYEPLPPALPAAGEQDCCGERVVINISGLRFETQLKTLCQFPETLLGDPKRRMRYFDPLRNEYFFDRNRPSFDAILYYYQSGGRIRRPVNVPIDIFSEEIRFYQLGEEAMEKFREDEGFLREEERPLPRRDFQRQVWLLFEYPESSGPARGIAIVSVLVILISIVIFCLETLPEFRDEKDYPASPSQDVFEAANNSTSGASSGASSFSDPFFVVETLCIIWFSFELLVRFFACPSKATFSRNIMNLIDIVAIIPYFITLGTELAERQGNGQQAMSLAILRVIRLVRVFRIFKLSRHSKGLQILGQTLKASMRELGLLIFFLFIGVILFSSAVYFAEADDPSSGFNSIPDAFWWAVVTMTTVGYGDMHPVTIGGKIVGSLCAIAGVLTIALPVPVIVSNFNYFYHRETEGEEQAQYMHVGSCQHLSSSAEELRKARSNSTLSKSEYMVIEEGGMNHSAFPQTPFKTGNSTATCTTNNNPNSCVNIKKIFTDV

[2] = inhibition of IL-17A release, thapsigargin, 24 Hr, at least 2 replicates

Structure (SMILES)	IC50 [1]	IC50 (Rat whole blood; [2])	IC50 (Rat whole blood)
CCCC[C@H](NC(=O)[C@H](CC(=O)O)NC(=O)[C@H](CCCC)NC(=O)[C@@H](N)CO)C(=O)N[C@@H](CCCNC(=N)N)C(=O)N[C@H]1CSSC[C@@H]2NC(=O)[C@H](CCCCN)NC(=O)CNC(=O)[C@H](Cc3ccccc3)NC(=O)[C@H]([C@@H](C)CC)NC(=O)[C@H](CO)NC(=O)CNC(=O)[C@H]([C@@H](C)CC)NC(=O)[C@H](C)NC(=O)[C@H](CCCCN)NC(=O)[C@H](CC(C)C)NC(=O)[C@@H]3CSSC[C@@H](C(=O)N[C@@H](Cc4ccc(O)cc4)C(=O)N[C@@H](CCC(N)=O)C(N)=O)NC(=O)[C@H](CCCCN)NC(=O)[C@H](CSSC[C@H](NC(=O)[C@H](CCC(=O)O)NC(=O)[C@H](C(C)C)NC(=O)[C@H](CO)NC(=O)[C@H](C)NC(=O)[C@H](CO)NC1=O)C(=O)N[C@@H](CCCCN)C(=O)N[C@@H](CCC(N)=O)C(=O)N[C@@H](CCCCN)C(=O)N3)NC(=O)[C@H](CCCCN)NC(=O)[C@H](CCCCN)NC(=O)[C@H](CC(N)=O)NC(=O)[C@H](CCSC)NC2=O [Compound 74] (H-S[Nle]D[Nle]RCSASVECKQKCLKAIGSIFGKCMNKKCKCYQ-NH2; disulfide 6-27, 12-32, 16-34)	360 pM	1600 pM	
CCCC[C@H](NC(=O)[C@H](CC(=O)O)NC(=O)[C@H](CCCC)NC(=O)[C@@H](N)CO)C(=O)N[C@@H](CCCNC(=N)N)C(=O)N[C@H]1CSSC[C@@H]2NC(=O)[C@H](CCCCN)NC(=O)CNC(=O)[C@H](Cc3ccccc3)NC(=O)[C@H]([C@@H](C)CC)NC(=O)[C@H](CO)NC(=O)CNC(=O)[C@H]([C@@H](C)CC)NC(=O)[C@H](C)NC(=O)[C@H](C(C)C)NC(=O)[C@H](CC(C)C)NC(=O)[C@@H]3CSSC[C@@H](C(=O)N[C@@H](Cc4ccc(O)cc4)C(=O)N4CCC[C@H]4C(=O)N[C@@H](CCCNC(=N)N)C(N)=O)NC(=O)[C@H](CCCCN)NC(=O)[C@H](CSSC[C@H](NC(=O)[C@H](CCC(=O)O)NC(=O)[C@H](C(C)C)NC(=O)[C@H](CO)NC(=O)[C@H](C)NC(=O)[C@H](CO)NC1=O)C(=O)N[C@@H](CCCCN)C(=O)N[C@@H](CCC(N)=O)C(=O)N[C@@H](CCCCN)C(=O)N3)NC(=O)[C@H](CCCCN)NC(=O)[C@H](CCCCN)NC(=O)[C@H](CC(N)=O)NC(=O)[C@H](CCSC)NC2=O [Compound 78] (H-S[Nle]D[Nle]RCSASVECKQKCLVAIGSIFGKCMNKKCKCYPR-NH2; disulfide 6-27, 12-32, 16-34)	120 pM	390 pM	≤ 1000 pM
CCCC[C@@H]1NC(=O)[C@@H]2CSSC[C@H](NC(=O)[C@H](CCCNC(=N)N)NC(=O)[C@H](CCCC)NC(=O)[C@H](CC(=O)O)NC(=O)[C@H](CCCC)NC(=O)[C@@H](N)CO)C(=O)N[C@@H](CO)C(=O)N[C@@H](C)C(=O)N[C@@H](CO)C(=O)N[C@@H](C(C)C)C(=O)N[C@@H](CCC(=O)O)C(=O)N[C@H]3CSSC[C@H](NC(=O)[C@H](CCCCN)NC(=O)[C@H](CCCCN)NC(=O)[C@H](CC(N)=O)NC1=O)C(=O)N[C@@H](CCCCN)C(=O)N[C@H](C(=O)N[C@@H](Cc1ccc(O)cc1)C(=O)N1CCC[C@H]1C(=O)N[C@@H](CCCNC(=N)N)C(=O)O)CSSC[C@H](NC(=O)[C@H](CCCCN)NC(=O)[C@H](CCC(N)=O)NC(=O)[C@H](CCCCN)NC3=O)C(=O)N[C@@H](CC(C)C)C(=O)N[C@@H](CCCCN)C(=O)N[C@@H](C)C(=O)N[C@@H]([C@@H](C)CC)C(=O)NCC(=O)N[C@@H](CO)C(=O)N[C@@H]([C@@H](C)CC)C(=O)N[C@@H](Cc1ccccc1)C(=O)NCC(=O)N[C@@H](CCCCN)C(=O)N2 [Compound 82] (H-S[Nle]D[Nle]RCSASVECKQKCLKAIGSIFGKC[Nle]NKKCKCYPR-OH; disulfide 6-27, 12-32, 16-34)	490 pM	520 pM	≤ 1000 pM
CCCC[C@@H]1NC(=O)[C@@H]2CSSC[C@H](NC(=O)[C@H](CCCNC(=N)N)NC(=O)[C@H](CCCC)NC(=O)[C@H](CC(=O)O)NC(=O)[C@H](CCCC)NC(=O)[C@@H](N)CO)C(=O)N[C@@H](CO)C(=O)N[C@@H](C)C(=O)N[C@@H](CO)C(=O)N[C@@H](C(C)C)C(=O)N[C@@H](CCC(=O)O)C(=O)N[C@H]3CSSC[C@H](NC(=O)[C@H](CCCCN)NC(=O)[C@H](CCCCN)NC(=O)[C@H](CC(N)=O)NC1=O)C(=O)N[C@@H](CCCCN)C(=O)N[C@H](C(=O)N[C@@H](Cc1ccc(O)cc1)C(=O)N1CCC[C@H]1C(=O)N[C@@H](CCCNC(=N)N)C(N)=O)CSSC[C@H](NC(=O)[C@H](CCCCN)NC(=O)[C@H](CCC(=O)O)NC(=O)[C@H](CCCCN)NC3=O)C(=O)N[C@@H](CC(C)C)C(=O)N[C@@H](CCC(N)=O)C(=O)N[C@@H](C)C(=O)N[C@@H]([C@@H](C)CC)C(=O)NCC(=O)N[C@@H](CO)C(=O)N[C@@H]([C@@H](C)CC)C(=O)N[C@@H](Cc1ccccc1)C(=O)NCC(=O)N[C@@H](CCCCN)C(=O)N2 [Compound 84] (H-S[Nle]D[Nle]RCSASVECKEKCLQAIGSIFGKC[Nle]NKKCKCYPR-NH2; disulfide 6-27, 12-32, 16-34)	84 pM	690 pM	≤ 1000 pM
CCCC[C@H](NC(=O)[C@@H]1CCCN1)C(=O)N[C@@H](CC(=O)O)C(=O)N[C@@H](CCCC)C(=O)N[C@@H](CCCNC(=N)N)C(=O)N[C@H]1CSSC[C@@H]2NC(=O)[C@H](CCCCN)NC(=O)CNC(=O)[C@H](Cc3ccccc3)NC(=O)[C@H]([C@@H](C)CC)NC(=O)[C@H](CO)NC(=O)CNC(=O)[C@H]([C@@H](C)CC)NC(=O)[C@H](C)NC(=O)[C@H](CCCC(N)=O)NC(=O)[C@H](CC(C)C)NC(=O)[C@@H]3CSSC[C@@H](C(=O)N[C@@H](Cc4ccc(O)cc4)C(=O)N4CCC[C@H]4C(=O)N[C@@H](CCCNC(=N)N)C(N)=O)NC(=O)[C@H](CCCCN)NC(=O)[C@H](CSSC[C@H](NC(=O)[C@H](CCC(=O)O)NC(=O)[C@H](C(C)C)NC(=O)[C@H](CO)NC(=O)[C@H](C)NC(=O)[C@H](CO)NC1=O)C(=O)N[C@@H](CCCCN)C(=O)N[C@@H](CCC(=O)O)C(=O)N[C@@H](CCCCN)C(=O)N3)NC(=O)[C@H](CCCCN)NC(=O)[C@H](CCCCN)NC(=O)[C@H](CC(N)=O)NC(=O)[C@H](CCCC)NC2=O [Compound 85] (H-P[Nle]D[Nle]RCSASVECKEKCL[Aad](NH2)AIGSIFGKC[Nle]NKKCKCYPR-NH2; disulfide 6-27, 12-32, 16-34)	150 pM	1400 pM	
CCCC[C@@H]1NC(=O)[C@@H]2CSSC[C@H](N)C(=O)N[C@@H](CO)C(=O)N[C@@H](C)C(=O)N[C@@H](CO)C(=O)N[C@@H](C(C)C)C(=O)N[C@@H](CCC(=O)O)C(=O)N[C@H]3CSSC[C@H](NC(=O)[C@H](CCCCN)NC(=O)[C@H](CCCCN)NC(=O)[C@H](CC(N)=O)NC1=O)C(=O)N[C@@H](CCCCN)C(=O)N[C@H]1CSSC[C@H](NC(=O)[C@H](CCCCN)NC(=O)[C@H](CCC(N)=O)NC(=O)[C@H](CCCCN)NC3=O)C(=O)N[C@@H](CC(C)C)C(=O)N[C@@H](CCCCN)C(=O)N[C@@H](C)C(=O)N[C@@H]([C@@H](C)CC)C(=O)NCC(=O)N[C@@H](CSSC[C@@H](C(N)=O)NC(=O)[C@@H]3CCCN3C(=O)[C@H](Cc3ccc(O)cc3)NC1=O)C(=O)N[C@@H]([C@@H](C)CC)C(=O)N[C@@H](Cc1ccccc1)C(=O)NCC(=O)N[C@@H](CCCCN)C(=O)N2 [Compound 86] (H-CSASVECKQKCLKAIGCIFGKC[Nle]NKKCKCYPC-NH2; disulfide 1-22, 7-27, 11-29, 17-32)	200 pM	1100 pM	
CCCC[C@@H]1NC(=O)[C@@H]2CSSC[C@H](NC(=O)[C@H](CCCNC(=N)N)NC(=O)[C@H](CCCC)NC(=O)[C@H](CC(=O)O)NC(=O)[C@H](CCCC)NC(=O)[C@@H](N)CO)C(=O)N[C@@H](CO)C(=O)N[C@@H](C)C(=O)N[C@@H](CO)C(=O)N[C@@H](C(C)C)C(=O)N[C@@H](CCC(=O)O)C(=O)N[C@H]3CSSC[C@H](NC(=O)[C@H](CCCCN)NC(=O)[C@H](CCCCN)NC(=O)[C@H](CC(N)=O)NC1=O)C(=O)N[C@@H](CCCCN)C(=O)N[C@H]1CSSC[C@H](NC(=O)[C@H](CCCCN)NC(=O)[C@H](CCC(N)=O)NC(=O)[C@H](CCCCN)NC3=O)C(=O)N[C@@H](CC(C)C)C(=O)N[C@@H](C)C(=O)N[C@@H](C)C(=O)N[C@@H]([C@@H](C)CC)C(=O)NCC(=O)N[C@@H](CSSC[C@@H](C(N)=O)NC(=O)[C@@H]3CCCN3C(=O)[C@H](Cc3ccc(O)cc3)NC1=O)C(=O)N[C@@H]([C@@H](C)CC)C(=O)N[C@@H](Cc1ccccc1)C(=O)NCC(=O)N[C@@H](CCCCN)C(=O)N2 [Compound 87] (H-S[Nle]D[Nle]RCSASVECKQKCLAAIGCIFGKC[Nle]NKKCKCYPC-NH2; disulfide 6-27, 12-32, 16-34, 22-37)	100 pM	730 pM	≤ 1000 pM
CCCC[C@H](NC(=O)[C@@H]1CCCN1)C(=O)N[C@@H](CC(=O)O)C(=O)N[C@@H](CCCC)C(=O)N[C@@H](CCCNC(=N)N)C(=O)N[C@H]1CSSC[C@@H]2NC(=O)[C@H](CCCCN)NC(=O)CNC(=O)[C@H](Cc3ccccc3)NC(=O)[C@H]([C@@H](C)CC)NC(=O)[C@@H]3CSSC[C@@H](C(=O)O)NC(=O)[C@@H]4CCCN4C(=O)[C@H](Cc4ccc(O)cc4)NC(=O)[C@@H]4CSSC[C@H](NC(=O)[C@H](CCCCN)NC(=O)[C@H](CCC(N)=O)NC(=O)[C@H](CCCCN)NC(=O)[C@H](CSSC[C@H](NC(=O)[C@H](CCCCN)NC(=O)[C@H](CCCCN)NC(=O)[C@H](CC(N)=O)NC(=O)[C@H](CCCC)NC2=O)C(=O)N[C@@H](CCCCN)C(=O)N4)NC(=O)[C@H](CCC(=O)O)NC(=O)[C@H](C(C)C)NC(=O)[C@H](CO)NC(=O)[C@H](C)NC(=O)[C@H](CO)NC1=O)C(=O)N[C@@H](CC(C)C)C(=O)N[C@@H](CCCCN)C(=O)N[C@@H](C)C(=O)N[C@@H]([C@@H](C)CC)C(=O)NCC(=O)N3 [Compound 88] (H-P[Nle]D[Nle]RCSASVECKQKCLKAIGCIFGKC[Nle]NKKCKCYPC-OH; disulfide 6-27, 12-32, 16-34, 22-37)	270 pM	1100 pM	
